Measurements reported in publication PMC11323312, “Structural response of G protein binding to the cyclodepsipeptide inhibitor FR900359 probed by NMR spectroscopy” (Chemical Science, 2024).
Starred links: 1 amine or outer side, 2 acyl side, 3 side chain; linkers in the order of their positions; H or OH if unused. Positions of bridges follow the written chain, without caps; N, C: chain ends. Non-standard residues stand in square brackets, D forms with d. Residues, ends and D or L forms follow the SMILES beside them. *: point of attachment. Leu(3R-OH,Nα-propionyl) = CCC(=O)N[C@H](C(=O)*)[C@H](O)C(C)C; X1 = CC(C)[C@@H](O[*:3])[C@H](N[*:1])C(=O)[*:2]; NMeT = CN[C@H](C(=O)O)[C@@H](C)O; dPhLac = O=C(O)[C@H](O)Cc1ccccc1; NMeA = CN[C@@H](C)C(=O)O; NMeDha = C=C(NC)C(=O)O

Columns and labels:
[1] = target: T1, chimeric Gαi/q protein (FR-sensitive Gαi mutant) (Homo sapiens, UniProt P63096, H188P/K180P/K54R/T187Y/V185I/V50I/V72L/Y69F); assay: Radioligand binding ([3H]PSB-15900 homologous competition, filtration assay); conditions: chimeric Gαi/q on TALON beads, 5 μg protein; [3H]PSB-15900 5 nM; unlabeled FR 0.003-30 μM; 2 h, 4 °C; 50 mM Tris-HCl pH 7.4; one-site homologous equation; mean ± SD of 3 independent experiments in duplicates
T1 construct: made in house; host or cells: E. coli (pET16b)
Method: The purified chimeric Gαi/q protein was preincubated with TALON immobilized metal affinity chromatography (IMAC) resin beads (Takara Bio) for 1–2 h at 4 °C with gentle shaking (0.025 μL beads per 0.1 mL of protein solution in 50 mM Tris–HCl, pH 7.4; final protein amount per sample: 5 μg). Each sample contained 70 μL of assay buffer (50 mM Tris–HCl, pH 7.4), 5 μL of dimethyl sulfoxide (DMSO) or the test compound (dissolved in DMSO), 50 μL of [^3H]PSB-15900 (FR-derived radioligand; 28 Ci/mmol; Pharmaron, Cardiff, UK)[14] in assay buffer (final concentration: 5 nM) and 125 μL of protein solution. Total binding of [^3H]PSB-15900 was determined using 5 μL of DMSO, and non-specific binding was determined using 5 μL of unlabeled FR900359 (final concentration: 5 μM). For competition binding experiments, dilutions from 30 μM to 0.003 μM of unlabeled FR900359, dissolved in DMSO, were added. Incubation was performed for 2 h at 4 °C with gentle shaking. […]
Multiple regions of the protein are either directly involved in binding of cyclodepsipeptide inhibitors, as shown by structural data on bound YM,[23] or show an indirect response to binding of the inhibitor, as proposed by MD simulations.[13,25] To investigate the conformational response of the G protein to inhibitor binding, structural alterations of the G protein itself must be detected. […]

Gαi/q = assay: Structural response to inhibitor binding by DNP-enhanced ssNMR (13C-NCOCX, unique pair labeling); conditions: inhibitor : protein 1.5 : 1, 4 °C overnight, nominal 105 K
Method: The protein response to inhibitor binding was studied by HNCO(CX) experiments with 20 ms mixing time recorded on DNP samples of frozen Gαi/q protein solution. The polarizing agent AsymPolPOK[36] was dried from a chloroform : methanol (1 : 1) stock solution to form a film that was resuspended with 1 mg of protein solution that was concentrated to a volume of 15 μL, subsequently 15 μL of d8-glycerol was added. The final concentration of radical in the mixture with the protein sample in the 3.2 mm NMR rotor was 10 mM. The samples were measured at a DNP setup consisting of a 400 MHz Avance Neo spectrometer (Bruker) with a 3.2 mm Cryo MAS HCN probe (Bruker) and a 263 GHz Gyrotron as microwave source. All experiments were done at a nominal temperature of 105 K. A MAS rate of 8 kHz and proton decoupling of 100 kHz were chosen. To investigate the effects of inhibitor binding, the protein solution was incubated with unlabeled FR or YM from a 10 mM DMSO stock solution at an inhibitor to protein molar ratio of 1.5 : 1 at 4 °C overnight. To study the effects of nucleotide binding, 5 μL of GDP was added to the samples from a 17 mM solution of GDP : MgCl2 (3 : 1 molar ratio) directly into the rotor. The GTP-bound state was generated by subsequent addition of 2 μL of GTP [0.1 M] and 2 μL AlF4 salt solution (150 mM MgCl2, 75 mM NaF, 15 mM AlCl3). DNP enhancement was measured by comparison of ^13C-CP spectra with and without microwave irradiation. Referencing was done indirectly using the right peak of d8-glycerol at 64.78 ppm.
In order to collect information about conformational changes in a spatially resolved manner, a unique pair labeling approach was chosen,[50] resulting in signals in the NMR spectra from a unique pair of neighboring amino acids in NCO type experiments. […] To obtain sufficient signal intensity in the experiments, spectra were recorded using DNP-enhanced ssNMR. […] Under those conditions, the full sampled conformational space is conserved and reflected in NMR line shapes, which can then be analyzed. […]

T1 sequence (P63096 whole entry V50I/K54R/Y69F/V72L/K180P/V185I/T187Y/H188P): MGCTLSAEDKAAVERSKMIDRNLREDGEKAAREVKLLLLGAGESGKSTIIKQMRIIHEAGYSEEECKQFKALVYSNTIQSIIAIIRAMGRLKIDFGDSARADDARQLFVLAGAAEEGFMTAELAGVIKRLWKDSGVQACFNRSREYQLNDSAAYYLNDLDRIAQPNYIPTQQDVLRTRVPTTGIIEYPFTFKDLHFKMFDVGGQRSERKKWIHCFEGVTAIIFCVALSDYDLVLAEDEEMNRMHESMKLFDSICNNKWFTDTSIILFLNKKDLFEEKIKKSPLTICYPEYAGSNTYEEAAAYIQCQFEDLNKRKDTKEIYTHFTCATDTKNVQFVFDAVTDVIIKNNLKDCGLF

Compound	Kd [1]	response of switch III (R242-M243) to inhibitor binding (Gαi/q; RM-pair)	response of α5 helix (V335-F336) to inhibitor binding (Gαi/q; VF-pair)	response of switch I (V179-P180) to inhibitor binding (Gαi/q; VP-pair)
C=C1C(=O)N[C@@H](C)C(=O)N(C)[C@@H](C)C(=O)N[C@@H]([C@H](OC(=O)[C@@H](NC(=O)CC)[C@H](O)C(C)C)C(C)C)C(=O)N(C)[C@@H]([C@@H](C)OC)C(=O)O[C@H](C(C)C)[C@H](NC(C)=O)C(=O)O[C@H](Cc2ccccc2)C(=O)N1C [FR, FR900359] (Ac-[X1][dPhLac][NMeDha]A[NMeA][X1](Leu(3R-OH,Nα-propionyl))[NMeT](Me); ester 1-C)	271 ± 69 nM	–	–	–
YM-254890	–	no effects in switch III	minor effects	clear narrowing of the ^13C valine signals
